Test system: DNA fragment of 450 mer
Experiment: DNA alkylation experiment analysed by polyacrylamide gel electrophoresis
Format: biochemical
Method: (1) An DNA alkylation experiment was conducted using the above-synthesized Ac-Im-Py-β-ala-CO-Du86.
(2) A similar experiment was conducted by using Im-Im-β-ala-Py-Py-β-ala-CO-Du86. In this case, it was clarified that two imidazole portions recognized guanine in a DNA to cause a sequence-specific DNA alkylation.
(3) A similar experiment was conducted by using Ac-Im-Py-Py-γ-butyl-Py-Py-β-ala-Du86. A pyrrole-imidazole polyamide portion of this compound has a hairpin structure, and one molecule of this compound can recognize both of double strands of a DNA. Though it is known that a Py-Py pair selectively recognizes AT or TA, a Im-Py pair selectively recognizes GC, and a Py-Im pair selectively recognizes CG when the hairpin compound is combined with a DNA in accordance with the Dervan's rule, this compound includes a new pair of β-alanine pair-Im for the molecular recognition. Therefore, a new molecular recognition rule can be discovered using this compound. Accordingly, a DNA alkylation experiment was conducted to confirm the possibility. Results of the experiment are shown in FIG. 3 (DNA: pUC18III 70 nM; Reagent Concentration: 10 nM to 500 nM, 5 samples; Reaction Conditions: sodium phosphate buffer solution (1.46 mM), 37° C., 8 hours).

[1] = DNA fragment of 450 mer, polyacrylamide gel electrophoresis (FIG. 1, FIG. 2)

Molecule | DNA sequence recognized and base alkylated (sequence-specific DNA alkylation) (DNA: pUC18III 70 nM, reagent 10 nM to 500 nM, sodium phosphate buffer solution (1.46 mM), 37° C., 8 hours (FIG. 3)) | DNA sequence recognized and base alkylated (sequence-specific DNA alkylation) [1]
COC(=O)c1c(C)[nH]c2c1[C@]13C[C@H]1CN(C(=O)CCNC(=O)c1cc(NC(=O)c4cc(NC(=O)CCCNC(=O)c5cc(NC(=O)c6cc(NC(=O)c7cc(NC(C)=O)cn7C)cn6C)cn5C)cn4C)cn1C)C3=CC2=O [Ac-Im-Py-Py-γ-butyl-Py-Py-β-ala-Du86, Ac-Im-Py-Py-γ-butyl-Py-Py-β-ala-CO-Du86] | recognizes 5′-(A/T)(A/T)(A/T)C(A/G)-3′ portion to selectively alkylates adenine of the 3′-end | 
COC(=O)c1c(C)[nH]c2c1C13CC1CN(C(=O)CCNC(=O)c1cc(NC(=O)c4nc(NC(C)=O)cn4C)cn1C)C3=CC2=O (stereo not drawn) [Ac-Im-Py-β-ala-CO-Du86] |  | recognized 5′-TAAA-3′ and alkylated adenine of 3′-end
Im-Im-β-ala-Py-Py-β-ala-CO-Du86 |  | recognized 5′-GGAGAAA-3′ and alkylated adenine of 3′-end

Reference: US7067622B2, “Method of the solid phase synthesis of pyrrole-imidazole polyamide” (Japan Science and Technology Agency, priority 2001, dated 2006)
